Measurements as given in patent publication US20210299150A1, “AP39 IMPACT ON MITOCHONDRIA, METABOLISM, GENE TRANSCRIPTION REGULATION, CARDIOTOXICITY PROTECTION AND CANCER TREATMENT” (priority 2020, published 2021).

What was measured:
[1] = tested on: SK-N-BE(2) neuroblastoma cell line; experiment: Cell viability (images, MTT) of SK-N-BE(2) neuroblastoma cell line; format: cell-based, human
Description: (§1) Methods for cell viability: Cells were plated in 96 wells/6 wells cell culture plates. After 24 hrs of plating, the treatments (added in the growth medium) were conducted. The following assays were performed after 24 hrs of the treatments (day 2). (FIGS. 15A, 17-20, 24-27)
(§2) MTT assay methods. For the MTT assay, […] of 5 mg/ml MTT-tetrazolium salts in PBS was added to each well containing the growth medium. After 3 hours of incubation, the medium was removed and the formazan crystals were dissolved by adding DMSO. The absorption of the formazan solution was measured using a spectrophotometer at a wavelength of 570 nm. FIGS. 15B, 21-22.
The SK-N-BE(2) neuroblastoma cell line was exposed to control, AP39 (AP) at 40 or 60 μM, Doxorubicin at 2.5 or 20 μM, thiolactate at 10 mM, AP39 and Doxorubicin, AP39 and thiolactate, or Doxorubicin and Thiolactate. […] FIGS. 17, 21, 24-25.

AMPK, Opa1 = experiment: Western blot of AMPK activation and Opa1 isoforms; format: cell-based; details: after AP39 treatment
Text: AP39 enhanced AMPK activation and produced shorter isoform of Opa1, i.e. no longer isoform of Opa1. Note AMPK substrate ACC phosphorylation
Mitochondrial energy efficiency is regulated through accumulation of the shorter form of Opa1 after AP39 treatment. […] Thus, AP39 treatment led to mitochondrial fission, better quality control through increased mitophagy (increased AMPK activation) and energetic efficiency (short form of Opa1), which were all needed to eliminate Dox damaged mitochondria and to halt the functional decline. Apart from its role in mitophagy and quality control, AMPK activation also induces transcription of nuclear encoded mitochondrial resident proteins.

[2] = tested on: 786-O cells renal cancer cells; experiment: Cell viability of 786-O renal cancer cells; format: cell-based
Description: as §1, §2
786-O cells renal cancer cells were exposed to control, AP39 (AP) at 40 or 60 μM, Doxorubicin at 2.5 or 20 μM, thiolactate at 10 mM, AP39 and Doxorubicin, AP39 and thiolactate, or Doxorubicin and Thiolactate. […] FIGS. 18 and 21.

[3] = 13C-glucose isotope tracing and GC-MS metabolite quantification; format: cell-based
Description: Stable isotope (13C glucose) tracer studies. Heatmap.
To this end, 13C-glucose flux/isotope tracing and quantified metabolites through GC-MS were examined at 16 hrs and 24 hrs after the treatments. Glucose, glutamine and lactate were also measured in supernatants at these time points. […] With the exception of glycolytic metabolites, the remaining metabolic pathways (poor labeling) were non-operational after Dox treatment (FIG. 10A).
When considered AP39-mediated activation of AMPK, H2S is selectively halting energy consuming anabolic pathways, such as protein synthesis (also, lipid, AMPK inhibits […], a rate limiting lipid synthesizing enzyme, FIGS. 7A and B), as observed before^41, thus leading to accumulation of amino acids and is enhancing TCA cycle through AMPK activation. The net result is better energy management with AP39/H2S treatment.

H9C2 cells = experiment: Crystal violet staining of H9C2 cells, Dox toxicity; format: cell-based, Rat
Description: (§3) AP39 treatment also ameliorated Dox toxicity in a model of Rat cardiomyoblast cell line, H9C2. […] There was a narrow window of protection, as 30 μM and 50 μm doses were not as strong as the 40 μM dose (FIGS. 5A and B) in conferring protection. […] Note that Dox caused an apoptotic phenotype in correlation with ROS levels (FIG. 5F, Dox lane). This in vitro AP39 protection is modest when compared to the in vivo scenario. This difference may be due to rapid clearance of toxic metabolites (for instance, higher lactate production, FIG. 10D) and better oxygen supply (AP39 stimulated OCR, FIG. 7C) in vivo and lack of such sophistication in vitro.
Crystal Violet (CV) assay. For the CV Staining assay, cells were stained with 0.5% crystal violet in 30% ethanol for 10 minutes at room temperature after removal of the medium. The cells were lysed in a 1% SDS (sodium dodecyl sulfate) solution. The absorbance of the solution was measured using a spectrophotometer at a wavelength of 595 nm. FIG. 27.

[4] = tested on: cleaved caspase 3 and PARP, phospho ERK1/2 and phospho p38; experiment: Western blot of apoptotic markers and stress signaling in H9C2; format: cell-based, Rat; details: H9C2, AP39 with Dox vs Dox only
Description: as §3

[5] = AP39 40 or 60 μM, thiolactate 10 mM, 24 hrs
[6] = combination with Doxorubicin 2.5 μM

O=C(CCCCCCCCC[P+](c1ccccc1)(c1ccccc1)c1ccccc1)Oc1ccc(-c2cc(=S)ss2)cc1.[Br-] [AP39]
cell killing, agent alone [1, 5]: able to kill SK-N-BE(2) cells
potency of low doses of Doxorubicin [1, 6]: able to increase the potency of low doses of Doxorubicin
reduction of Dox IC value by AP39 ([1]; vs original IC70): ~8 fold
AMPK activation (AMPK, Opa1): potent AMPK activation
Opa1 isoforms (Opa1-S, Opa1-L) (AMPK, Opa1): elevated amounts of the short form of Opa1 (Opa1-S) at the expense of long form (Opa1-L)
cell killing, agent alone [2, 5]: able to kill renal cancer cells
potency of low doses of Doxorubicin [2, 6]: able to increase the potency of low doses of Doxorubicin
Serine and glycine 13C labeling ([3]; 16 hrs and 24 hrs): suppressed
accumulation of TCA metabolites during Dox treatment ([3]; AP39 with Dox): attenuated accumulation of TCA metabolites
amino acid accumulations during Dox treatment ([3]; AP39 with Dox): not effective in preventing many amino acid accumulations
13C labeling of TCA cycle metabolites (citrate, malate, alpha-ketoglutarate, fumarate) ([3]; AP39 with or without Dox, 16 hrs and 24 hrs): highly labeled
protection against Dox toxicity, crystal violet staining (H9C2 cells; H9C2, AP39 with Dox): significant protection
AP39 dose conferring strongest protection (30 and 50 not as strong) (H9C2 cells; H9C2, crystal violet, with Dox): 40 µM
PARP and caspase 3 cleavage [4]: significantly reduced PARP and caspase 3 cleavage
stress signaling (activated ERK1/2 and p38 kinases) [4]: reduced stress signaling
